# Calls of active or inactive are those of the source. The calls are words filed in the database; no cut-off is given here.
# Legend:
# [1] = Inhibition of recombinant Leishmania donovani C-terminal His6-tagged Nucleoside hydrolase expressed in Escherichia coli BL21(DE3) cells assessed as reduction in uric acid formation by coupled assay
# [2] = tested on: Leishmania donovani; assay: Reversible inhibition of recombinant Leishmania donovani C-terminal His6-tagged Nucleoside hydrolase expressed in Escherichia coli BL21(DE3) cells assessed recovery of enzyme activity at 10 times of IC50 preincubated for 20 mins followed by inosine addition by jump dilution experiment based assay
# [3] = Noncompetitive inhibition of recombinant Leishmania donovani C-terminal His6-tagged Nucleoside hydrolase expressed in Escherichia coli BL21(DE3) cells assessed as decrease in Vmax using 0.01 to 3 mM of inosine as substrate preincubated for 20 mins followed by inosine addition
IC50 [1] [µM],Compound,inhibition [2],Ki [3] [µM]
25.6,O=C(/C=C/c1ccc(O)cc1)O[C@@H]1Cc2c(O)cc3c(c2O[C@@H]1c1ccc(O)c(O)c1)[C@H]1c2c(O)cc(O)cc2O[C@@](c2ccc(O)c(O)c2)(O3)[C@@H]1O,Active,21.2
28.2,O=C(/C=C/c1ccc(O)cc1)O[C@@H]1Cc2c(O)cc3c(c2O[C@@H]1c1ccc(O)c(O)c1)[C@H]1c2c(O)cc(O)cc2O[C@@](c2cc(O)c(O)c(O)c2)(O3)[C@@H]1O,Active,27.9
